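Where inhibition never reached the appropriate level, the endpoint shown equals the highest concentration tested. Otherwise, values were interpolated linearly from a five-concentration, 48-hour dose response in 96-well plates. At the GI50, growth is halved. TGI marks complete inhibition of growth.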
How the values were obtained:
Experiment in all cases: inhibition of tumour cell growth, NCI panel, 48 h
786-0 renal = test system: 786-0 renal
A549 NSCLC = test system: A549 NSCLC
ACHN renal = test system: ACHN renal
BT-549 breast = test system: BT-549 breast
CAKI-1 renal = test system: CAKI-1 renal
CCRF-CEM leukemia = test system: CCRF-CEM leukemia
COLO 205 colon = test system: COLO 205 colon
DU-145 prostate = test system: DU-145 prostate
EKVX NSCLC = test system: EKVX NSCLC
HCC-2998 colon = test system: HCC-2998 colon
HCT-116 colon = test system: HCT-116 colon
HCT-15 colon = test system: HCT-15 colon
HOP-62 NSCLC = test system: HOP-62 NSCLC
HS 578T breast = test system: HS 578T breast
HT29 colon = test system: HT29 colon
IGROV1 ovarian = test system: IGROV1 ovarian
K-562 leukemia = test system: K-562 leukemia
KM12 colon = test system: KM12 colon
LOX IMVI melanoma = test system: LOX IMVI melanoma
M14 melanoma = test system: M14 melanoma
MALME-3M melanoma = test system: MALME-3M melanoma
MCF7 breast = test system: MCF7 breast
MDA-MB-231 breast = test system: MDA-MB-231 breast
MDA-MB-435 = test system: MDA-MB-435
NCI-H226 lung = test system: NCI-H226 lung
NCI-H23 lung = test system: NCI-H23 lung
NCI-H460 lung = test system: NCI-H460 lung
NCI-H522 lung = test system: NCI-H522 lung
NCI/ADR-RES ovarian = test system: NCI/ADR-RES ovarian
OVCAR-3 ovarian = test system: OVCAR-3 ovarian
OVCAR-4 ovarian = test system: OVCAR-4 ovarian
OVCAR-5 ovarian = test system: OVCAR-5 ovarian
OVCAR-8 ovarian = test system: OVCAR-8 ovarian
PC-3 prostate = test system: PC-3 prostate
RPMI-8226 leukemia = test system: RPMI-8226 leukemia
RXF 393 renal = test system: RXF 393 renal
SF-268 CNS = test system: SF-268 CNS
SF-295 CNS = test system: SF-295 CNS
SF-539 CNS = test system: SF-539 CNS
SK-MEL-2 melanoma = test system: SK-MEL-2 melanoma
SK-MEL-28 melanoma = test system: SK-MEL-28 melanoma
SK-MEL-5 melanoma = test system: SK-MEL-5 melanoma
SK-OV-3 ovarian = test system: SK-OV-3 ovarian
SN12C renal = test system: SN12C renal
SNB-19 CNS = test system: SNB-19 CNS
SNB-75 CNS = test system: SNB-75 CNS
SW-620 colon = test system: SW-620 colon
T-47D breast = test system: T-47D breast
TK-10 renal = test system: TK-10 renal
U251 CNS = test system: U251 CNS
UACC-257 melanoma = test system: UACC-257 melanoma
UACC-62 melanoma = test system: UACC-62 melanoma
UO-31 renal = test system: UO-31 renal

Cc1ccc(C2=C(c3ccc(C)cc3)C3(c4ccc(C)cc4)[C@@H](C#N)[C@H](C#N)C2(c2ccc(C)cc2)S3=O)cc1 (stereo partly specified)
GI50 (786-0 renal): > 100 µM | TGI (786-0 renal): > 100 µM | GI50 (A549 NSCLC): > 100 µM | TGI (A549 NSCLC): > 100 µM | GI50 (ACHN renal): > 100 µM | TGI (ACHN renal): > 100 µM | GI50 (BT-549 breast): > 100 µM | TGI (BT-549 breast): > 100 µM | GI50 (CAKI-1 renal): > 100 µM | TGI (CAKI-1 renal): > 100 µM | GI50 (CCRF-CEM leukemia): > 100 µM | TGI (CCRF-CEM leukemia): > 100 µM | GI50 (COLO 205 colon): > 100 µM | TGI (COLO 205 colon): > 100 µM | GI50 (DU-145 prostate): > 100 µM | TGI (DU-145 prostate): > 100 µM | GI50 (EKVX NSCLC): > 100 µM | TGI (EKVX NSCLC): > 100 µM | GI50 (HCC-2998 colon): > 100 µM | TGI (HCC-2998 colon): > 100 µM | GI50 (HCT-116 colon): 48.5 µM | TGI (HCT-116 colon): > 100 µM | GI50 (HCT-15 colon): > 100 µM | TGI (HCT-15 colon): > 100 µM | GI50 (HOP-62 NSCLC): > 100 µM | TGI (HOP-62 NSCLC): > 100 µM | GI50 (HS 578T breast): > 100 µM | TGI (HS 578T breast): > 100 µM | GI50 (HT29 colon): > 100 µM | TGI (HT29 colon): > 100 µM | GI50 (IGROV1 ovarian): > 100 µM | TGI (IGROV1 ovarian): > 100 µM | GI50 (K-562 leukemia): 2.02 µM | TGI (K-562 leukemia): > 100 µM | GI50 (KM12 colon): > 100 µM | TGI (KM12 colon): > 100 µM | GI50 (LOX IMVI melanoma): > 100 µM | TGI (LOX IMVI melanoma): > 100 µM | GI50 (M14 melanoma): 30.1 µM | TGI (M14 melanoma): > 100 µM | GI50 (MALME-3M melanoma): > 100 µM | TGI (MALME-3M melanoma): > 100 µM | GI50 (MCF7 breast): > 100 µM | TGI (MCF7 breast): > 100 µM | GI50 (MDA-MB-231 breast): > 100 µM | TGI (MDA-MB-231 breast): > 100 µM | GI50 (MDA-MB-435): > 100 µM | TGI (MDA-MB-435): > 100 µM | GI50 (NCI-H226 lung): > 100 µM | TGI (NCI-H226 lung): > 100 µM | GI50 (NCI-H23 lung): > 100 µM | TGI (NCI-H23 lung): > 100 µM | GI50 (NCI-H460 lung): > 100 µM | TGI (NCI-H460 lung): > 100 µM | GI50 (NCI-H522 lung): > 100 µM | TGI (NCI-H522 lung): > 100 µM | GI50 (NCI/ADR-RES ovarian): > 100 µM | TGI (NCI/ADR-RES ovarian): > 100 µM | GI50 (OVCAR-3 ovarian): > 100 µM | TGI (OVCAR-3 ovarian): > 100 µM | GI50 (OVCAR-4 ovarian): > 100 µM | TGI (OVCAR-4 ovarian): > 100 µM | GI50 (OVCAR-5 ovarian): > 100 µM | TGI (OVCAR-5 ovarian): > 100 µM | GI50 (OVCAR-8 ovarian): > 100 µM | TGI (OVCAR-8 ovarian): > 100 µM | GI50 (PC-3 prostate): > 100 µM | TGI (PC-3 prostate): > 100 µM | GI50 (RPMI-8226 leukemia): > 100 µM | TGI (RPMI-8226 leukemia): > 100 µM | GI50 (RXF 393 renal): > 100 µM | TGI (RXF 393 renal): > 100 µM | GI50 (SF-268 CNS): > 100 µM | TGI (SF-268 CNS): > 100 µM | GI50 (SF-295 CNS): > 100 µM | TGI (SF-295 CNS): > 100 µM | GI50 (SF-539 CNS): > 100 µM | TGI (SF-539 CNS): > 100 µM | GI50 (SK-MEL-2 melanoma): > 100 µM | TGI (SK-MEL-2 melanoma): > 100 µM | GI50 (SK-MEL-28 melanoma): > 100 µM | TGI (SK-MEL-28 melanoma): > 100 µM | GI50 (SK-MEL-5 melanoma): > 100 µM | TGI (SK-MEL-5 melanoma): > 100 µM | GI50 (SK-OV-3 ovarian): > 100 µM | TGI (SK-OV-3 ovarian): > 100 µM | GI50 (SN12C renal): > 100 µM | TGI (SN12C renal): > 100 µM | GI50 (SNB-19 CNS): > 100 µM | TGI (SNB-19 CNS): > 100 µM | GI50 (SNB-75 CNS): > 100 µM | TGI (SNB-75 CNS): > 100 µM | GI50 (SW-620 colon): > 100 µM | TGI (SW-620 colon): > 100 µM | GI50 (T-47D breast): > 100 µM | TGI (T-47D breast): > 100 µM | GI50 (TK-10 renal): > 100 µM | TGI (TK-10 renal): > 100 µM | GI50 (U251 CNS): > 100 µM | TGI (U251 CNS): > 100 µM | GI50 (UACC-257 melanoma): > 100 µM | TGI (UACC-257 melanoma): > 100 µM | GI50 (UACC-62 melanoma): > 100 µM | TGI (UACC-62 melanoma): > 100 µM | GI50 (UO-31 renal): > 100 µM | TGI (UO-31 renal): > 100 µM
